Counter-ions that a name gives are not always drawn.
Key:
[1] = tested on: brain ischemia (carotid tying) in mice; assay: Example 4: carotid tying and release in mice; format: in vivo; settings: control mortality 50%
Procedure: We performed experiments on 50 mice of the pyramid by tying the carotid under light anesthesia. After 7 minutes, we released the tie and restored the blood circulation in the ischemic area.

[2] = tested on: myocardial ischemia in rats; assay: Example 3: myocardial ischemia with restored circulation in rats; format: in vivo
Procedure: Experiments were performed on 60 previously prepared rats. Thirty days before the start of the main experiment, a part of the coronary artery was tied off.
Next, after having supplied light anesthesia, we created by means of the obstruction of the vessel a massive hearth of myocardial ischemia.
We administered the sodium salt intravenously in doses of 30, 100, 200 and 250 mg per kilogram of body weight, immediately after having released the tie. In the control group, the rats were administered a physiological solution, while the test group was given the antioxidant Dibunolo (20% oily solution in a dose of 30 mg/kg).

[3] = tested on: Sprague-Dawley rats; settings: use to decrease serum cholesterol levels; cited from earlier work
[4] = Summary of experiments on phthaloylhydrazide derivatives; format: in vivo; settings: for pharmacological activity, anti-hypoxic and defensive action: doses of 10 to 300 mg/kg
[5] = tested on: hypoxia in mice; assay: Example 1: resistance of mice to hypoxia (altitude of 10,400 meters); format: in vivo; settings: control 41±2.5, sodium salt at 60 to 80 mg/kg
Procedure: We assessed the pharmacological activity on the basis of the resistance of the animals to hypoxia. […] We administered the drug intravenously in doses of 10 to 300 mg, in 0.1 ml of physiological solution. In some cases, because of poor solubility, we injected the derivatives in the form of suspensions. The control animals received 0.1 ml of physiological solution.

[6] = tested on: ethane and pentane contents of the air inhaled by the animals; settings: change in ethane and pentane contents
[7] = tested on: hypoxia
[8] = tested on: leukocytes in ischemic tissue; surviving animals
[9] = tested on: leukocytes; settings: in vivo
[10] = morphological analysis, test group

## N[C@@H](Cc1c[nH]cn1)C(=O)O [histidine, reference compound]
[1]
  prevention of mortality: not entirely prevented

## Cc1cc(C(C)(C)C)c(O)c(C(C)(C)C)c1 [Dibunolo, reference compound]
[1]
  prevention of mortality: not entirely prevented
[2]; Dibunolo 20% oily solution, 30 mg/kg, p>0.05
  survival rate: tendency toward rising survival rates of the animals, but the results obtained were not reliable

## O=c1[nH][nH]c(=O)c2ccccc12 [Phthaloylhydrazide, 2,3 dihydrophthalazine-1,4 dione]
[3]
  toxicity: certain signs of toxicity
[4]
  pharmacological activity, anti-hypoxic and defensive action: possess a pronounced pharmacological activity

## dimethyldiaminophthaloylhydrazide
[5]
  life span of the animals: 89 ± 12 s

## 4,5-amino-2,3- dihydrophthalazine-1,2 dione [4,5-aminophthaloylhydrazide]
[4]
  pharmacological activity, anti-hypoxic and defensive action: possess a pronounced pharmacological activity

## Nc1ccc2c(=O)[nH][nH]c(=O)c2c1 [4-aminophthaloylhydrazide]
[4]; in vivo
  therapeutic effects: major therapeutic effects

## Nc1cccc2c(=O)[nH][nH]c(=O)c12 [sodium salt of 5-aminophthaloylhydrazide, sodium salt of 5-amino-2,3-dihydrophthalazine-1,2 dione]
[6]
  antioxidant action in vivo: antioxidant action in vivo
[7]; 60 to 80 mg
  anti-hypoxic activity vs antioxidants (Dibunolo, histidine, Organeia, etc.): exceeds that of antioxidants used thus far in medical practice
[7]; beyond 100 mg/kg
  anti-hypoxic effect on further dose increase: the effect does not basically increase
[5]
  life span of the animals: 222 ± 45 s
[2]; 30 mg/kg i.v.
  signs of a therapeutic effect: clear signs of a therapeutic effect
[2]; 30 mg/kg i.v., p>0.05
  prevention of death: did not prevent the death of the animals
[2]; 100 mg/kg and beyond, i.v., p<0.01-0.001
  number of surviving animals: increase in the number of surviving animals
[2]; [10]
  damaged area of myocardium: the damaged area could not be perceived visually
  necrotic hearths in myocardium: The tiny necrotic hearths were few and diffused
[8]; experimental group, intravenous, p<0.01
  percentage of surviving animals: 80%
[8]; one time i.v. 150 to 250 mg/kg
  increase of leukocyte levels in the blood: 2.5 times
[8]; one time i.v. 150 to 250 mg/kg, after 6 hours
  previously penetrated leukocytes eliminated: 75%
[9]
  adhesion capacity of the leukocytes: drop in the adhesion capacity of the leukocytes

## 4-methyl-4,5-diamino-2,3 dihydrophthalazine-1,2 dione
[4]
  pharmacological activity, anti-hypoxic and defensive action: possess a pronounced pharmacological activity
